Paper PMC3206016, “Putting into Practice Domain-Linear Motif Interaction Predictions for Exploration of Protein Networks” (PLoS ONE, 2011)
Peptide text beside a SMILES is read from it. * marks the point of attachment. Biotin = O=C1N[C@H]2[C@H](CS[C@H]2CCCCC(=O)*)N1

Legend:
Assay in all cases: SPR binding of MBP-PDZ analyte to immobilised biotinylated peptides
Settings in all cases: for norm. RU at 10 µM: SPR Req at 10 µM MBP-PDZ, normalised for analyte molecular weight and immobilised ligand
[1] = target: T1, SCRIB-3/4 PDZ domain (Homo sapiens, UniProt Q14160)
T1 construct: cDNA bearing residues 997–1093, 1097–1193 and 997–1193 of human SCRIB (Uniprot acc.: Q14160-1); made in house; host or cells: E. coli BL21 DE3
T1 sequence (Q14160 997-1093 isoform Q14160-1): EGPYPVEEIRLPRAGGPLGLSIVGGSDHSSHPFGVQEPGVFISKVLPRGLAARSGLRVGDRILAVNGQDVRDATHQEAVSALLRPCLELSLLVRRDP
Protocol: (§1) We opted for the surface plasmon resonance (SPR) method to measure these 190 (19 proteins×2 peptide versions×5 PDZ constructs) interactions. In SPR various concentrations of “analytes” (here, PDZ domains fused to the Maltose Binding Protein (MBP)) flow over surfaces presenting attached “ligands” (here, biotinylated peptides). The amount of analyte interacting with the ligand is measured and quantified in response units (RU). The intensity of this signal is proportional to the binding strength of the assayed interaction (Figure 5A). K [drawing 13] were obtained using a 1∶1 interaction model. However, these calculated K [drawing 14] were rather inaccurate especially for weak interactions. Therefore, we preferred to rank the binding strengths of the 190 interactions using normalised RU signals at equilibrium ( [drawing 15] ) rather than K [drawing 16] (see Methods for details). These normalised [drawing 17] values were plotted in form of a heat map (Figure 5B).
(§2) The cDNA encoding residues 448–572 and 613–752 of mouse MAGI-1 (UniProt acc.: Q6RHR9-1) encoding for MAGI1-2/6 (100% identical to human MAGI1-2/6) and MAGI1-3/6 (99% identical to human MAGI1-3/6) PDZ domains, respectively, were inserted into the NcoI/KpnI sites of the pETM-41 expression vector (EMBL) containing a 6×His-MBP tag followed by a TEV protease cleavage site. A similar cloning strategy was adopted for cDNA bearing residues 997–1093, 1097–1193 and 997–1193 of human SCRIB (Uniprot acc.: Q14160-1) encoding for SCRIB-3/4, SCRIB-4/4 PDZ domains and SCRIB-34/4 tandem PDZ construct, respectively.
(§3) Data were collected on a Biacore 2000 instrument (Biacore AB/GE Healthcare Bio-Sciences Corp., Piscataway, NJ, USA) at 25 [drawing 74] C. SPR experiments (ligand immobilisation and binding measurements) have been performed as described in Fournane et al.. Briefly, biotinylated peptides (instead of GST-fused recombinant peptides) were immobilised on CM5 sensorchips on which Neutravidin was previously attached. The MBP-PDZ domain analyte was injected at 8 to 10 different concentrations ranging from 0 up to 30 [drawing 75] M. Data were processed using the BiaEvaluation 3.2 software (Biacore AB/GE Healthcare Bio-Sciences Corp.) using “double referencing” [78] in which sensorgrams were corrected for buffer effects and bulk refractive index changes.
(§4) The steady-state binding signal ( [drawing 76] ) was derived by averaging the signals in a five second window at equilibrium. Steady-state analysis was performed by fitting the average signal [drawing 77] as a function of total MBP-PDZ concentrations, assuming a simple 1∶1 interaction binding isotherm model. […] Reasons for this inaccuracy are likely to be the following: 1. As previously described, several repetitions of all the measurements are required to determine accurate K [drawing 81] . In our case, such repetitions were not achievable in reasonable time due to the large amount of interactions measured in this study. 2. The highest injected analyte concentration restricts the maximal K [drawing 82] (weakest interaction) that can be accurately obtained. 3. A K [drawing 83] is estimated based on a mathematical extrapolation of observed [drawing 84] signals leading to additional uncertainty. Based on these reasons, we considered the calculated K [drawing 85] not as accurate enough to be used for absolute binding strength comparison in this study. We rather performed a relative analysis of binding strengths using directly [drawing 86] signals which are not biased by any mathematical assumption. We focussed on [drawing 87] signals obtained at 10 [drawing 88] M MBP-PDZ concentration, which have been systematically measured in duplicate. The [drawing 89] signal is directly proportional to the molecular weight of the analyte and the amount of immobilised ligand. Therefore, the [drawing 90] signals were normalised taking those into account before being used for binding strength comparison. […]

[2] = target: T2, MAGI1-2/6 PDZ domain (Mus musculus, UniProt Q6RHR9)
T2 construct: The cDNA encoding residues 448–572 and 613–752 of mouse MAGI-1 (UniProt acc.: Q6RHR9-1) encoding for MAGI1-2/6; made in house; host or cells: E. coli BL21 DE3
Protocol: as §1, §2, §3, §4

[3] = target: T3, MAGI1-3/6 PDZ domain (Mus musculus, UniProt Q6RHR9)
T3 construct: The cDNA encoding residues 448–572 and 613–752 of mouse MAGI-1 (UniProt acc.: Q6RHR9-1); made in house; host or cells: E. coli BL21 DE3
Protocol: as §1, §2, §3, §4

[4] = target: T4, SCRIB-34/4 tandem PDZ construct (Homo sapiens, UniProt Q14160)
T4 construct: residues 997–1093, 1097–1193 and 997–1193 of human SCRIB (Uniprot acc.: Q14160-1); made in house; host or cells: E. coli BL21 DE3
T4 sequence (Q14160 997-1193 isoform Q14160-1): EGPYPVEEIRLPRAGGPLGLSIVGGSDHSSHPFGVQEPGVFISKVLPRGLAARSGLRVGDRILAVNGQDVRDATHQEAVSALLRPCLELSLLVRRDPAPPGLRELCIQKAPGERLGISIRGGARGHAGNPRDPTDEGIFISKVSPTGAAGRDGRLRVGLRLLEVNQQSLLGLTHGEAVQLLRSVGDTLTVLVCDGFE
Protocol: as §1, §2, §3, §4

[5] = target: T5, SCRIB-4/4 PDZ domain (Homo sapiens, UniProt Q14160)
T5 construct: residues 997–1093, 1097–1193 and 997–1193 of human SCRIB (Uniprot acc.: Q14160-1); made in house; host or cells: E. coli BL21 DE3
T5 sequence (Q14160 1097-1193 isoform Q14160-1): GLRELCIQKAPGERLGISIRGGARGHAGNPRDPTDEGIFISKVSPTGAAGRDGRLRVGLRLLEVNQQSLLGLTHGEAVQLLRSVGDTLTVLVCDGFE
Protocol: as §1, §2, §3, §4

[6] = tentative KD, SPR Biacore 2000, 25 C, steady state, 1:1 binding isotherm, MBP-PDZ 0-30 µM, to be considered with caution

T2 sequence (Q6RHR9 448-572): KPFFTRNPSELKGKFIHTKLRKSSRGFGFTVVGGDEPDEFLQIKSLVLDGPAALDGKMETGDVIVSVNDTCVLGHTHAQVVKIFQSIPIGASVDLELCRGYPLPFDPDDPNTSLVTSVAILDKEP
T3 sequence (Q6RHR9 613-752): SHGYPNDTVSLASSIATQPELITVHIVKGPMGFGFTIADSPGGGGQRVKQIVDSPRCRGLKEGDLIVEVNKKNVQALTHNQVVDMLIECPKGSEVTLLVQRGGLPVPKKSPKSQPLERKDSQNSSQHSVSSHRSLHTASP

Row | Molecule | norm. RU at 10 µM [1] | norm. RU at 10 µM [2] | norm. RU at 10 µM [3] | norm. RU at 10 µM [4] | norm. RU at 10 µM [5] | Kd [1, 6] | Kd [2, 6] | Kd [3, 6] | Kd [4, 6] | Kd [5, 6]
1 | C[C@H](NC(=O)[C@@H](NC(=O)CCCC[C@@H]1SC[C@@H]2NC(=O)N[C@@H]21)[C@@H](C)O)C(=O)N[C@@H](CO)C(=O)N1CCC[C@H]1C(=O)N[C@@H](C)C(=O)N[C@@H](CCCCN)C(=O)N[C@@H](CCC(=O)O)C(=O)N[C@H](C(=O)N[C@@H](CO)C(=O)N[C@@H](Cc1ccccc1)C(=O)O)[C@@H](C)O [GLUT7_10] (Biotin-TASPAKETSF-OH) | 57.5 RU | 0.0 RU | 0.0 RU | 70.8 RU | 0.0 RU | – | – | – | – | –
2 | CC(C)[C@H](NC(=O)[C@@H](NC(=O)[C@@H](NC(=O)[C@H](CCC(=O)O)NC(=O)[C@H](CCCCN)NC(=O)[C@H](CO)NC(=O)[C@H](CC(N)=O)NC(=O)[C@H](CCCNC(=N)N)NC(=O)[C@H](CCCCN)NC(=O)[C@@H](NC(=O)CCCC[C@@H]1SC[C@@H]2NC(=O)N[C@@H]21)C(C)C)[C@@H](C)O)C(C)C)C(=O)O [MARCH3_10] (Biotin-VKRNSKETVV-OH) | 22.7 RU | 54.7 RU | 10.9 RU | 88.1 RU | 0.0 RU | – | – | – | – | –
3 | CC(C)[C@H](NC(=O)[C@H](CCC(=O)O)NC(=O)[C@@H](NC(=O)[C@H](CCC(=O)O)NC(=O)[C@H](CCCNC(=N)N)NC(=O)CNC(=O)[C@H](C)NC(=O)CNC(=O)[C@H](CO)NC(=O)CNC(=O)CCCC[C@@H]1SC[C@@H]2NC(=O)N[C@@H]21)[C@@H](C)O)C(=O)O [TAX1_05] (Biotin-GSGAGRETEV-OH) | – | – | – | – | – | 96 µM | 33 µM | 75 µM | 1 µM | 50 µM
4 | EKPIDSETKM [GLAST_10, long peptide: last ten wild type C-terminal residues of Excitatory amino acid transporter 1, biotinylated] | 0.0 RU | 0.0 RU | 0.0 RU | 0.0 RU | 0.0 RU | – | – | – | – | –
